From article PMC8421406, “C9orf72-derived arginine-rich poly-dipeptides impede phase modifiers” (Nature Communications, 2021)
Where no end group is shown, it is not given here. HA = HA epitope tag

Tested on: GFP:cNLS:TDP43-LC / mCh:TDP43-LC hydrogel
Experiment: Hydrogel binding assay, TDP43-LC with Impα/β1
Type: biochemical
Details: 1.0 µM GFP:cNLS:TDP43-LC, Impα/β1 1.0 µM/1.0 µM, PR20 1.0 µM
Excerpt: Expression plasmids for recombinant proteins (GFP/mCherry fusion LC-domain of FUS (residue 2–214, GFP/mCh:FUS-LC) and GFP/mCherry fusion LC-domain of hnRNPA2 (residue 181–341, GFP/mCh:hnRNPA2-LC)) were obtained from the Steven L. McKnight Laboratory. Expression plasmid for GFP:FUS-LC fusion NLS (residue 501–526, GFP:FUS-LC:NLS), mCh fusion LC-domain of TDP43 (residue 262–414, mCh:TDP43-LC), and GFP-tagged cNLS (residue 78–99) fusion TDP43-LC (GFP:cNLS:TDP43-LC) were constructed using In-Fusion HD Cloning Kit (Takara Bio, Inc.). GFP/mCh:FUS-LC, GFP:FUS-LC:NLS, and GFP/mCh:hnRNPA2-LC were expressed in E. coli BL21(DE3) cells with 0.5 mM IPTG at 20 °C overnight and purified by Ni-NTA Agarose (FUJIFILM Wako Pure Chemical Corporation), as described in a previous study. GFP:cNLS:TDP43-LC were expressed with 1.0 mM IPTG at 37 °C for 3 h and mCh:TDP43-LC were expressed with 0.5 mM IPTG at 16 °C overnight. GFP:cNLS:TDP43-LC and mCh:TDP43-LC were purified by Ni-NTA as described in a previous study[48] with some modifications. […] Relative intensity of GFP signals across the hydrogel droplets were measured in triplicate by using the profile plot mode in ImageJ. […]

PR20: twenty repeats of proline:arginine with an HA epitope tag at the C terminus, synthesized by SCRUM, Inc. (PRPRPRPRPRPRPRPRPRPRPRPRPRPRPRPRPRPRPRPR-{HA})
Effect on ability of Impα/β1 to modify phase transition of TDP43-LC: inhibited the ability of other NIRs Impα/β1 in modifying the phase transition of LC-domain of TDP43
